Source: patent publication US12595269B2, “Morpholine-like monoamine releasers” (Solvonis Therapeutics Ireland Holdings Limited, priority 2022, dated 2026)
“Also recorded” adds a separate entry of the source.

What was measured:
[1] = target: T1, human P-glycoprotein transporter (Homo sapiens, UniProt P08183); experiment: P-gp substrate assessment, efflux ratio in MDCKII-MDR1 cells; format: in vitro ADME; conditions: P-gp substrate classification, MDCKII-MDR1 cells
T1 construct: expressed in transfected cells; host or cells: MDCKII (canine kidney)
Description: (§1) Methods and Procedure: This study was conducted in compliance with previously described procedures to assure data integrity and adherence to GLP regulations. The experiments described herein were designed to evaluate the apparent permeability (Papp) of test compounds at pH 7.4. Additionally, the MDCKII-MDR1 cell line (Madin-Darby Canine Kidney clone II cell line heterologously expressing the human P-glycoprotein transporter) and mock cell line MDCKII were used to determine whether a compound acted as a P-gp substrate, in the absence and in the presence of the potent P-gp inhibitor. Test control items (digoxin, metoprolol, and atenolol) and control P-gp inhibitor (GF120918) stock solution were prepared in DMSO. Bidirectional assays (Apical to Basolateral [AB] and Basolateral to Apical [BA]) were run, in both the absence and presence of P-gp inhibitor GF120918 in MDCKII-MDR1 and mock cell line MDCKII, using as transport buffer HBSSH at a pH of 7.4 (n=3).
(§2) Compounds were tested at a single concentration (i.e. at 3 or 10 μM) at one time point (i.e. 60 min). Alternative concentrations or time-points may also be investigated. As reference compounds, digoxin (P-gp substrate), atenolol (low permeable compound) and metoprolol (high permeable compound) were included at a single concentration (e.g., 10 or 25 μM) and at single time point (e.g., 60 min). Digoxin transport was evaluated in two directions (apical-to-basolateral [AB] and basolateral-to-apical [BA]) in the absence and presence of GF120918 or in mock cells, MDCKII (n=3). Atenolol and metoprolol were only tested in the AB direction in absence of GF120918 or in mock cells, MDCKII (n=3). The integrity of the cell monolayer was evaluated after the permeability experiment using the paracellular permeability marker Lucifer yellow (LY) in the apical to basolateral direction in each well.
(§3) MDCKII or MDCKII-MDRI cells cultivated using DMEM (high glucose, GlutaMAX™ supplemented with pyruvate, 10% FBS HI and Pen/Strep) and seeded onto microporous PET (Polyethylene Terephthalate) membranes in HTS 96-Multiwell Insert plates at density of ˜175,000-245,000 cells/cm^2 (25000-35000 cells/well; 50 μL/well) in DMEM medium and incubated for 3-4 days at 37° C.-5% CO2. Medium was changed a day before the experiment.
(§4) Stock solutions of test items were prepared in DMSO at a concentration of 5 or 10 mM and stored at −20° C. until use. The potent P-gp inhibitor, GF120918 (stock solution 10 mM) and the reference controls digoxin, atenolol, metoprolol (stock solutions 3 or 10 mM) were prepared in DMSO and stored at −20° C. until use.
(§5) Donor working solutions of test items and reference controls will be prepared at a concentration of 10 or 25 μM, diluting the stock solutions in HBSSH. Receiver working solutions contained transport buffer only. All working solutions were prepared such that the final concentration of DMSO was <1% (v/v). A donor working solution containing LY was also prepared in transport buffer at 100 µM.
(§6) MDCKII and MDCKII-MDR1 cells were preincubated (37° C., 15 to 30 minutes) in receiver working solutions containing transport buffer on apical (A) and basolateral (B) sides. Following pre-incubation, test items and control items (digoxin) transport were measured in two directions (apical to basolateral [AB]) and basolateral to apical [BA]), and these directions were performed in triplicate sets of wells, in both the absence and presence of […] GF120918 or mock MDCKII cells. For [AB] directional transport, 75 μL of donor working solution was added to the A (apical) compartment and 235 μL of receiver working solution was added to the B (basolateral) compartment. For [BA] directional transport, 235 μL donor working solution with test items or reference controls was added to the B compartment and 75 μL receiver working solution was added to the A compartment. Transport of permeability reference controls, atenolol and metoprolol, were measured in one direction (apical to basolateral [AB]) (n=3). […]

[2] = target: T2, human P-glycoprotein (MDR1) (Homo sapiens, UniProt P08183); experiment: as above; format: in vitro ADME; conditions: dog, MDCK-MDR1, pH 7.4; efflux ratio; P-gp substrate if ratio >2 and reduced by inhibitor; read-out: B/A ratio in MDCKII-MDR1 cells
T2 construct: expressed in transfected cells; host or cells: MDCKII (canine kidney)
Description: as §1, §2, §3, §4, §5, §6

T2 sequence (P08183 whole entry): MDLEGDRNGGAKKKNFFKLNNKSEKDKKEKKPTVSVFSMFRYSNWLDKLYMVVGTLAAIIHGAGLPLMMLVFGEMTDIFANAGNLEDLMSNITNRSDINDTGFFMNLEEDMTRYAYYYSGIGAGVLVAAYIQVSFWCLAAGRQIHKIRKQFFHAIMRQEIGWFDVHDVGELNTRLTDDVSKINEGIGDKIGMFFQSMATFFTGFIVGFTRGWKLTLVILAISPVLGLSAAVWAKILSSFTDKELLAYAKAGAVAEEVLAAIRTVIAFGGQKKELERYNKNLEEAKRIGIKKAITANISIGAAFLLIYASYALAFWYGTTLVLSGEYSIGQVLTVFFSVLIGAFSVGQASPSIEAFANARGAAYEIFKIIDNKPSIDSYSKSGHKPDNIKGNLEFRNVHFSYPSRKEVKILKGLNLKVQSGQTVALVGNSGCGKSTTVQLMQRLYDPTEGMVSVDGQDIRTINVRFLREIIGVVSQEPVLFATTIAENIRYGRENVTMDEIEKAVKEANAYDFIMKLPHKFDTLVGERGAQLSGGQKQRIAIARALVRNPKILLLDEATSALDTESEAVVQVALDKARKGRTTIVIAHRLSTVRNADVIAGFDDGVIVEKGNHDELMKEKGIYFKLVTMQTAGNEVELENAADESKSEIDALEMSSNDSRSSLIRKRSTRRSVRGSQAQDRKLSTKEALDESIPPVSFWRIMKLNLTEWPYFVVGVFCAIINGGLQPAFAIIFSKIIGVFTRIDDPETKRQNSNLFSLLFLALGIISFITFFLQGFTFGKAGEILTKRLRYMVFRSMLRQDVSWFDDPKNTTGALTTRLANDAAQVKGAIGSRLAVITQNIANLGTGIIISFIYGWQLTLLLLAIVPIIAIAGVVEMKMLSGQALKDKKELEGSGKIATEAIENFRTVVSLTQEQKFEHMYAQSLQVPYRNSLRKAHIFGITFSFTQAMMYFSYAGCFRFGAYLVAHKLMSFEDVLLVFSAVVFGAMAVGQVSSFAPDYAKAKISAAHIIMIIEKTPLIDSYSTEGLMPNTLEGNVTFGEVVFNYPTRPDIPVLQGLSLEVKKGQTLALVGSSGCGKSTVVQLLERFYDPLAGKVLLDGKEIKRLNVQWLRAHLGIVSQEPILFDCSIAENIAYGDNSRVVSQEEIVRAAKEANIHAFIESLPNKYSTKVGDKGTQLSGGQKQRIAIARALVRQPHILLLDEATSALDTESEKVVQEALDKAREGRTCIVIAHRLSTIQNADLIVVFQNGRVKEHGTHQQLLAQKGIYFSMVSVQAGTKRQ
T1 sequence (P08183 whole entry): as above

SMILES: Clc1ccc([C@]23CN[C@H](CO2)C3)cc1Cl (single isomer, unassigned) [516A]
- Substrate Classification [1]: pGP-NO
- efflux ratio at 60 min [2]: 0.73

SMILES: Clc1ccc([C@@]23CN[C@@H](CO2)C3)cc1Cl (single isomer, unassigned) [518A]
- Substrate Classification [1]: not determined to be a substrate for P-gp; also recorded: pGP-NO
- efflux ratio at 60 min [2]: 0.7

SMILES: Clc1ccc(C23CNC(CO2)C3)cc1Cl (centres unmarked) [522A, 1-(3,4-dichlorophenyl)-2-oxa-5-azabicyclo[2.2.1]heptane]
- Substrate Classification [1]: not determined to be a substrate for P-gp; also recorded: pGP-NO
- efflux ratio at 60 min [2]: 0.83

SMILES: CNC(C)Cc1ccc2c(c1)OCO2 (centres unmarked) [MDMA, reference compound]
- Substrate Classification [1]: not a P-gp substrate
- efflux ratio at 60 min [2]: 1.5
